The values that follow come from paper PMC8187206 (Pharmacological Reports, 2020).

For series [1] the following is noted: diabetic animals (streptozotocin-induced for sunitinib and lapatinib, alloxan-induced rabbits for erlotinib); cited from earlier work.
Series [2] can be described thus: Plasma pharmacokinetics of sorafenib and sorafenib N-oxide after single oral sorafenib in diabetic and healthy rats (HPLC-UV, non-compartmental analysis). In kind it is in vivo, Wistar-strain rats. Conditions: single oral sorafenib 100 mg/kg. As to the method: The experimental protocol for this study was reviewed and approved by the Local Ethics Committee. All procedures were performed in accordance with European Union regulations concerning the handling and use of laboratory animals. The study was conducted following the principles of the 3Rs (Replacement, Reduction and Refinement). Adult male Wistar-strain rats (weight 400–445 g) were used in the study. The animals were maintained under standard breeding conditions with a 12 h light–12 h dark cycle at constant room temperature (23 ± 2 °C), relative humidity (55 ± 10%) and given ad libitum access to feed and water. After acclimatisation the rats were randomly assigned into two groups: the diabetic group (DG) (n = 8) and the healthy group (HG) (n = 8).
(§1) DG rats were fed a high-fat diet (Labofeed B, 60% fat; Morawski, Poland) for a period of 4 weeks to induce insulin resistance. After 2 weeks of dietary manipulation the animals were intraperitoneally injected with STZ (35 mg/kg body weight in 1000 μL of sterile citrate buffer, pH 4.2). Citrate buffer was injected as a vehicle in HG. The high-fat diet was continued for subsequent 2 weeks in the DG. The rats in the HG were fed with standard diet (Labofeed B, 8% fat) and water ad libitum. The rats with the blood glucose level ≥ 250 mg/dL were considered diabetic and qualified for this study. The percentage reduction of the glucose levels in the rats was calculated using the following formula: %Reductionglucose=(V0-Vt)·100/V0, where V0 glucose concentration at baseline and Vt glucose concentration at the time of maximum reduction.
(§2) After injecting streptozotocin 10% glucose solution was additionally administered for 24 h to prevent hypoglycaemia. […] The drug was dissolved in 1 mL 10% DMSO and administered orally by means of a gastric feeding tube. 0.1 mL blood samples were collected from rats by cutting a piece of their tails. The samples were collected at the following time points: 0, 0.5, 1, 1.5, 2, 3, 4, 5, 6, 7, 8, 10, 12, 24, 30, 48, 72, 96 h. Each time on blood collection glycaemia was measured.
The validation was performed according to the guidelines of the European Medicines Agency (EMA) concerning validation of bioanalytical methods. Chromatographic analysis was conducted on a Alliance® system with 2695 Separation Module and a Dual Lambda (λ) absorbance detector (Waters Corporation®, USA). Data acquisition was performed using Empower software v. 1154. Separation was carried out on Symmetry® C8 column (250 mm × 4.6 mm, 5.0 µm particle size, Waters Corporation®, USA). The column temperature was maintained at 25 °C. The mobile phase consisted of ammonium acetate 0.1 M pH = 3.4 (adjusted with glacial acetic acid) (solvent A) and acetonitrile (solvent B). The following gradient was used: the percentage A was decreased from 60 to 29%, while at the same time over 21 min percentage B increased linearly from 40 to 71%. The UV detection wavelength was set at 265 nm, and the injection volume was 20 µL. The volume of the analyzed rat plasma was 25 µL. The samples were determined using liquid–liquid extraction.
The maximum plasma concentration (Cmax) and the time to reach the maximum plasma concentration (tmax) were obtained directly from the concentration—time data. The elimination rate constant (kel) was estimated from the slope of the terminal linear segment of the log mean concentration-time plot using the automatic best-fitting option in WinNonlin 8.1. The elimination half-life (t1/2kel) was calculated from ln2/kel. The area under the concentration-time curve from zero to the time of the last concentration measured (AUC0−t) was calculated by a linear trapezoidal rule and the residual area under the curve (AUCres) was estimated by extrapolation from the last concentration measured (Clast) to infinity using Clast/kel ratio. The area under curve from zero to infinity (AUC0−∞) was computed as a sum of AUC0−t and AUCres.

Series [3] in a line: Effect of a single sorafenib dose on blood glucose level (glycaemia). In kind it is in vivo, Wistar-strain rats. As to conditions: control group (healthy rats), single oral sorafenib 100 mg/kg. As to the method:
as §1, §2

The subject of series [4] is streptozotocin-induced diabetic rats. Described as above. In kind it is in vivo, Wistar-strain rats. As to conditions: DG group (diabetic rats), single oral sorafenib 100 mg/kg. As to the method:
as §1, §2

The next series relates to patients. As to conditions: multiple administration of the TKI; cited from earlier work.
For series [5] the following is noted: cited from earlier work.
Where [6] appears, read: increase in diabetic versus healthy rats.

As for `CCN(CC)CCNC(=O)c1c(C)[nH]c(/C=C2\C(=O)Nc3ccc(F)cc32)c1C` [sunitinib], in series [1], the “Cmax in diabetic animals” value is reported as “significantly increased” and the “total exposure in diabetic animals” value is recorded as “significantly increased”.

Regarding `CNC(=O)c1cc(Oc2ccc(NC(=O)Nc3ccc(Cl)c(C(F)(F)F)c3)cc2)ccn1` [Sorafenib], the “Cl/F decreased in diabetic animals” value in series [2] (decrease in diabetic versus healthy rats) is listed as 40%. In series [2] (setting [6]), the “AUC0−t higher in the DG when compared to the HG” value was found to be 66.4%, the “AUC0−∞ higher in the DG when compared to the HG” value came out at 56.0% and the “Cmax higher in the DG when compared to the HG” value was found to be 88.7%. The glucose levels result in series [3] was “did not decrease”. Besides, in series [4], the “time of maximum reduction of glycaemia after the sorafenib administration” value lay within 1.5 to 11 h. For the same compound, the “maximum reduction of glycaemia” value in series [4] ((V0-Vt)·100/V0) is 11.2–50.8%. In the series on patients, the “effect on blood glucose after multiple administration” value is “hypoglycaemic effect”.

For `CNC(=O)c1cc(Oc2ccc(NC(=O)Nc3ccc(Cl)c(C(F)(F)F)c3)cc2)cc[n+]1[O-]` [Sorafenib N-oxide, sorafenib N-oxide], in series [5], the “share of circulating substances at steady state” value is given as 9–16%. For the same compound, in series [2] (setting [6]), the “AUC0−t higher in the DG when compared to the HG” value worked out at 112.55%, the “AUC0−∞ higher in the DG when compared to the HG” value is 91.87%, the “AUMC0-t increase in the DG” value was determined as 134.31% and the “AUMC0-∞ increase in the DG” value is listed as 85.33%. In addition, in series [2] (setting [6]), the “Cmax higher in the DG when compared to the HG” value turned out to be 119.57%.

As to `CS(=O)(=O)CCNCc1ccc(-c2ccc3ncnc(Nc4ccc(OCc5cccc(F)c5)c(Cl)c4)c3c2)o1` [lapatinib], in series [1], the “Cmax in diabetic animals” value was “significantly increased” and the “total exposure in diabetic animals” value is on record as “significantly increased”.

Regarding `C#Cc1cccc(Nc2ncnc3cc(OCCOC)c(OCCOC)cc23)c1` [erlotinib], in series [1], the “Cmax in diabetic animals” value is reported as “significantly increased” and the “total exposure in diabetic animals” value is listed as “significantly increased”.
